Holding throughout (assay type): in vivo, BALB/c mice
Assay [1] is described as follows: immunity organ weight test (thymus gland index, spleen index). The settings on record: X ± SD. The procedure:
(§1) The above substances were all dissolved in 0.5 ml saline and injected intraperitoneal (i.p.) for 15 continuous days, once per day.
(§2) One day after the last test substance administration (day 16), the liver, spleen, and thymus gland were separated and blotted dry with filter paper and weighed. The phagocytosis index α was calculated as below: α=(^3√K)(W÷WLS) key: W: body weight WLS: weight of liver plus spleen Thymus gland index(%)=(thymus weight/body weight)×100% Spleen index(%)=(spleen weight/body weight)×100%

Assay [2] deals with anti-SRBC antibody. As to the kind of experiment: Sheep Red Blood Cell (SRBC) hemolysis test, anti-SRBC antibody formation. The settings on record: SRBC on day 12, IFN-γ and IL-2 groups 3×10^5 IU/kg/day, X ± SD. The procedure: Sheep red blood cells (SRBC) were prepared by collecting blood from cervical vein and put into a sterile flask with glass beads. The flask was shaken for 3 minutes and the blood then mixed with Alsever solution (glucose 2.05 g, NaCl 0.4 g, […] 0.8 g, adjust to 100 ml with distilled water) and stored at 4° C. Immediately before use, samples were centrifuged at 130 g, 5 minutes to collect the SRBC. The cells were washed two times by re-suspension and centrifugation in normal saline. Then the cell pellet was collected by centrifugation at 180 g for 10 minutes and re-suspended in saline to make the final working SRBC suspension, 2% (v/v).
Complement was prepared by adding 10 volumes of fresh Cavy serum into one volume centrifuge packed SRBC, and then gently shaking for 30 minutes at 4° C. The SRBC was removed by centrifugation at 200 g for 10 minutes. 10 volumes of normal saline were added to obtain the working complement solution.
The test substances were administered as described in section 1.1, plus intraperitoneal injection 0.2 ml SRBC per mouse on day 12. On the day after the last test substance administration (day 16), blood was collected from the eye canthus and left at room temperature for one hour for serum exudation. After centrifugation at 200 g for 10 minutes, the serum was diluted by 500 times with normal saline.
To 1 ml diluted mouse serum of each mouse, 0.5 ml SRBC suspension was added. Ice cold. Then 1 ml working complement solution was added and incubated at 37° C. water bath for 10 minutes. Reactions were terminated by ice cold. Samples were then centrifuged at 200 g for 10 minutes to obtain the supernatant.
To 1 ml of this supernatant, 3 ml Drabkin solution was added and left at room temperature for 10 minutes. OD540nm was obtained.
Reference OD540nm was obtained by mixing 0.25 ml SRBC suspension with Drabkin solution to 4 ml and placed at room temperature for 10 minutes before OD540nm was taken. Sample serum index=(OD540nm of test sample[…]reference OD540nm)×500 3. The Effect of Peptides on the Phagocytosis Function of Mononuclear Phagocyte and the Weight of Immune Organ^[8,9].

For assay [3], the system named is NK cell. The assay is described as follows: NK cell cytotoxicity activity test (YAC-1 target cells, MTT) on spleen cells of treated mice. The settings on record: IFN-γ and IL-2 groups 3×10^5 IU/kg/day, X ± SD. As for the experimental part: as §1
(§3) Ten mice per group. The day after the last test substance administration, the mice were sacrificed by cervical dislocation. The spleen was isolated aseptically and manually dispersed in cold D-Hank's solution using an injection needle. The dispersed cell suspension was further sieved through a 100 gauge 150 μm diameter stainless steel sieve. After centrifugation at 200 g for 10 minutes, the supernatant was discarded. The cell pellet was re-suspended in 10 volume of Tris-NH4Cl buffer and then kept standing still for 10 minutes at room temperature. The suspended cells were collected by centrifugation at 150 g for 10 minutes. The cells were washed 2-4 times with cold D-Hank's solution by re-suspending and collecting by centrifugation with condition as described above. The washed cells were then diluted to the desired cell densities by RPMI-1640 culture medium, containing 10% fetal bovine serum.
Mice spleen cells were prepared to 4×10^6/ml as described in section 1.1 above. Target cells YAC-1 were brought to log phase and adjusted to 1×10^5/ml. Using a 96 wells cell culture plate, 100 μl mouse spleen cells and 100 μl culture medium were added to the control well containing only the spleen cells; 100 μl target cells and 100 μl culture medium were added to the control well containing only target cells; 100 μl mouse spleen cells and 100 μl target cells were added to the NK activity assay well. Three parallel sets of the above were prepared per mouse.
Samples were centrifuged at 150 g for 10 minutes to collect the cells. The supernatant was discarded and 50 μl/well MTT of 1 mg/ml was added. The reaction mixture was then shaken for 2 minutes, and incubated at 37° C., 5% CO2 for 4 hours. The supernatant was discarded after centrifugation at 150 g for 10 minutes. 120 μl 40 mM HCl-2-propanol was added and shaken for 3 minutes. An ELISA reader was used to obtain OD570nm of each well referenced at 630 nm.

The test system of assay [4] is T lymphocyte. The assay is described as follows: T lymphocyte transformation test (ConA, MTT) on spleen cells of treated mice. Further details: key: OD of assay wells divided by OD of control wells. To be noted: IFN-γ and IL-2 groups 3×10^5 IU/kg/day, X ± SD. As for the experimental part:
as §1, §3
Spleen cells of density 1×10^6/ml were placed onto a 96 wells cell culture plate, 100 μl/well, three parallel wells each of the assay sample and control sample per mouse. To the assay wells, 100 μl/well ConA of 100 μg/ml in RPMI-1640 was added, and 100 μl/well plain RPMI-1640 was used for the controls. The cells were incubated for 66 hrs at 37° C., 5% CO2. The cells were then pelleted by centrifugation at 150 g for 10 minutes.
50 μl/well MTT of 1 mg/ml in RPMI-1640 was added to the cell pellet and the cells re-suspended by shaking for 2 minutes. The incubation was continued for 4 hours. The supernatant was discarded after centrifugation at 150 g for 10 minutes. 120 μl 40 mM HCl-2-propanol was added to the cell pellet and shaken for 3 minutes. to obtain OD570nm of each well referenced at 630 nm. An ELISA reader was used
Each mouse formed three assay wells and three control wells. The Stimulation Index (SI) of each mouse was obtained by first deriving the average OD of the three parallel wells, then dividing the value of the assay wells by the control wells.

Assay [5] has as its system mononuclear phagocyte. As to the kind of experiment: carbon particle clearance test, phagocytotic activity of mononuclear phagocyte. Further details: key: α = (cube root of K)×(body weight ÷ liver+spleen weight). The settings on record: peptide 0.5 μg/kg/day i.p. 15 days; IFN-γ and IL-2 groups 3×10^5 IU/kg/day; X ± SD. The procedure: On the next day after the last test substance administration (day 16), the mice were injected with […] body weight India ink (5 times dilution with normal saline) from the tail vein.
One minute and five minutes after Indian ink injection, 20 μl blood was obtained from the eye can thus with a heparinized tubing. The blood was mixed with 2 ml 0.1% w/v Na2CO3 and then OD680nm obtained. The outline clear index K was calculated by the following formula: K=(lgA1−lgA2)÷(t2−t1) Key: A1: OD680nm at first minute A2: OD680nm at fifth minute t2: 5 minutes […]
as §2

Setting [6] is: peptide 5 μg/kg/day i.p. 15 days, IFN-γ and IL-2 groups 3×10^5 IU/kg/day.
The mark [7] stands for this setting: peptide 50 μg/kg/day i.p. 15 days, IFN-γ and IL-2 groups 3×10^5 IU/kg/day.
Where [8] appears, read: peptide 500 μg/kg/day i.p. 15 days.
Setting [9] is: peptide 0.5 μg/kg/day i.p. 15 days.
Where [10] appears, read: peptide 5 μg/kg/day i.p. 15 days.
[11] abbreviates: peptide 50 μg/kg/day i.p. 15 days.
Where [12] appears, read: peptide 500 μg/kg/day i.p. 15 days, IFN-γ and IL-2 groups 3×10^5 IU/kg/day.
[13] abbreviates: peptide 0.5 μg/kg/day i.p. 15 days, IFN-γ and IL-2 groups 3×10^5 IU/kg/day.

The results in this text go back to patent publication US7718768B2, “Biologically active peptide [sequence]” (CMS Peptides Patent Holding Company Limited, priority 2001, dated 2010).

Marks after values point to notes of the source that are not given here. No end group written: not given here.

For Ala Ala Phe [CMS023], the “weight of thymus gland (thymus gland index)” value (“weight … (thymus gland index)” below) in assay [1] (setting [6]) is 0.23 ± 0.06 %; in assay [1] (setting [7]) it was 0.20 ± 0.02*^@^ %. For the same substance, in assay [1] (setting [8]), the “weight of spleen (spleen index)” value was 0.36 ± 0.06 %. Moreover, the “anti-SRBC antibody formation (sample serum index)” value in assay [2] (setting [9]) is reported as 108 ± 21*^@^ Unit; in assay [2] (setting [10]), 166 ± 27*^@^ Unit; in assay [2] (setting [11]) it was 84 ± 11*^@^ Unit; in assay [2] (setting [8]), 110 ± 45*^@^ Unit. Also, the “NK cell cytotoxic activity (NK cell activity index)” value in assay [3] (setting [8]) was 79 ± 12 %.
For the substance “Phe Asn Glu Glu (FNEE; listed as Sus scrofa) [CMS029]”, in assay [4] (setting [8]), the “stimulation index (T lymphocyte transformation)” value came to 1.7 ± 0.3. Also, the results for the “weight … (thymus gland index)” value in assay [1] (setting [6]), in assay [1] (setting [7]) and in assay [1] (setting [12]) were 0.21 ± 0.03 %, 0.18 ± 0.05 % and 0.22 ± 0.04*^@^ %, respectively. For the same substance, the “weight of spleen (spleen index)” value in assay [1] (setting [7]) is recorded as 0.42 ± 0.04 %. For the same substance, the “anti-SRBC antibody formation (sample serum index)” value in assay [2] (setting [9]) was 18 ± 7* Unit; in assay [2] (setting [10]), 147 ± 23*^@^ Unit; in assay [2] (setting [11]), 143 ± 13*^@^ Unit; in assay [2] (setting [8]), 115 ± 22*^@^ Unit. For the same substance, the “NK cell cytotoxic activity (NK cell activity index)” value in assay [3] (setting [8]) was 87 ± 4 %.
On to “Phe Glu Glu Asn Met (FEENM; listed as Sus scrofa) [CMS027]”, for which the “weight … (thymus gland index)” value in assay [1] (setting [7]) is reported as 0.21 ± 0.03*^@^ %; in assay [1] (setting [12]) it was 0.20 ± 0.03*^ %. For the same substance, in assay [1] (setting [8]), the “weight of spleen (spleen index)” value turned out to be 0.37 ± 0.03 %. The substance further displayed a phagocytotic index in assay [5] of 6.4 ± 0.6. Also, the entries for the “anti-SRBC antibody formation (sample serum index)” value in assay [2] (setting [9]), in assay [2] (setting [10]) and in assay [2] (setting [11]) were 99 ± 14*^@^ Unit, 117 ± 45*^@^ Unit and 93 ± 11*^@^ Unit, respectively. The “NK cell cytotoxic activity (NK cell activity index)” value in assay [3] (setting [8]) is recorded as 88 ± 8 %.
As for “Phe Glu Ser Phe (FESF; listed as Sus scrofa) [CMS033]”, the results for the “weight … (thymus gland index)” value in assay [1] (setting [6]), in assay [1] (setting [7]) and in assay [1] (setting [12]) were 0.20 ± 0.02 %, 0.18 ± 0.03 % and 0.25 ± 0.04*^@^ %, respectively. Besides, the “anti-SRBC antibody formation (sample serum index)” value was 78 ± 12*^@ Unit in assay [2] (setting [9]), 128 ± 39*^@^ Unit in assay [2] (setting [10]), 112 ± 15*^@^ Unit in assay [2] (setting [11]) and 143 ± 27*^@^ Unit in assay [2] (setting [8]). For the same substance, the “NK cell cytotoxic activity (NK cell activity index)” value in assay [3] (setting [8]) worked out at 89 ± 8 %.
Turning to TTYNSIM [CMS026], the “weight … (thymus gland index)” value in assay [1] (setting [13]) is recorded as 0.21 ± 0.05 %; in assay [1] (setting [6]), 0.31 ± 0.05*^@^ %; in assay [1] (setting [7]), 0.27 ± 0.02*^@^ %; in assay [1] (setting [12]) it was 0.20 ± 0.03*^ %. Besides, the “anti-SRBC antibody formation (sample serum index)” value in assay [2] (setting [9]) was 19 ± 6* Unit; in assay [2] (setting [10]) it was 191 ± 17*^@^ Unit; in assay [2] (setting [11]), 98 ± 9*^@^ Unit. The “NK cell cytotoxic activity (NK cell activity index)” value turned out to be 76 ± 9 % in assay [3] (setting [11]) and 89 ± 7 % in assay [3] (setting [8]).
For the substance VVYPWTQRF [CMS002], the results for the “stimulation index (T lymphocyte transformation)” value in assay [4] (setting [11]) and in assay [4] (setting [8]) were 2.6 ± 0.3*^@^ and 1.8 ± 0.3, respectively. The “weight … (thymus gland index)” value in assay [1] (setting [13]) is listed as 0.26 ± 0.06*^@^ %; in assay [1] (setting [6]) it was 0.24 ± 0.05*^ %; in assay [1] (setting [7]) it was 0.21 ± 0.02*^@^ %. Besides, the entries for the “anti-SRBC antibody formation (sample serum index)” value in assay [2] (setting [9]) and in assay [2] (setting [8]) were 4 ± 1* Unit and 87 ± 18*^@ Unit, respectively. The “NK cell cytotoxic activity (NK cell activity index)” value in assay [3] (setting [9]) amounted to 76 ± 9 %.
